Data: ChEMBL document CHEMBL1201862, “PubChem BioAssay data set” (2004)
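1) Cells in 96-well plates. 2) Compound, 48 h, 5 concentrations. 3) Linear interpolation between surrounding doses. 4) Unreached endpoint = highest concentration. Abbreviation: GI50, concentration required for 50% inhibition of growth.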 The source made the active and inactive calls. No stated cut-off is given here; in the data, active = GI50 up to about 1.1 µM and inactive = higher.

Columns and labels:
Experiment in all cases: NCI-60 cell line screen, 48 h
SR = tested on: SR
UO-31 = tested on: UO-31
DLD-1 = tested on: DLD-1
786-0 = tested on: 786-0
SK-MEL-28 = tested on: SK-MEL-28
HOP-18 = tested on: HOP-18
HCT-116 = tested on: HCT-116
RXF 631 = tested on: RXF 631
CAKI-1 = tested on: CAKI-1
UACC-62 = tested on: UACC-62
ACHN = tested on: ACHN
A498 = tested on: A498
DMS-114 = tested on: DMS-114
EKVX = tested on: EKVX
OVCAR-8 = tested on: OVCAR-8
IGROV-1 = tested on: IGROV-1
KM12 = tested on: KM12
TK-10 = tested on: TK-10
SK-OV-3 = tested on: SK-OV-3
SNB-75 = tested on: SNB-75
NCI-H226 = tested on: NCI-H226
K562 = tested on: K562
SW-620 = tested on: SW-620
DMS-273 = tested on: DMS-273
HCT-15 = tested on: HCT-15
UACC-257 = tested on: UACC-257
SNB-19 = tested on: SNB-19
HCC 2998 = tested on: HCC 2998
OVCAR-5 = tested on: OVCAR-5
SF-539 = tested on: SF-539
HL-60 = tested on: HL-60
NCI-H460 = tested on: NCI-H460
CCRF-CEM = tested on: CCRF-CEM
OVCAR-4 = tested on: OVCAR-4
HT-29 = tested on: HT-29
OVCAR-3 = tested on: OVCAR-3
A549 = tested on: A549
XF498 = tested on: XF498
LOX IMVI = tested on: LOX IMVI
SK-MEL-5 = tested on: SK-MEL-5
Malme-3M = tested on: Malme-3M
MOLT-4 = tested on: MOLT-4
SNB-78 = tested on: SNB-78
SK-MEL-2 = tested on: SK-MEL-2
HOP-92 = tested on: HOP-92
RPMI-8226 = tested on: RPMI-8226
COLO 205 = tested on: COLO 205
M14 = tested on: M14
LXFL 529 = tested on: LXFL 529
SN12C = tested on: SN12C
SF-268 = tested on: SF-268
NCI-H23 = tested on: NCI-H23
HOP-62 = tested on: HOP-62
KM-20L2 = tested on: KM-20L2
SF-295 = tested on: SF-295
M19-MEL = tested on: M19-MEL
RXF 393 = tested on: RXF 393
NCI-H522 = tested on: NCI-H522
U-251 = tested on: U-251

In the case of `C/C(=C1/N=C(c2cc([N+](=O)[O-])ccc2Cl)N(c2ccc(Br)cc2)C1=O)c1ccc(N(CCC#N)CCC#N)cc1C`, the GI50 (SR) is reported as 7.98 µM (inactive), the GI50 (UO-31) is reported as 24.7 µM (inactive) and the GI50 (DLD-1) is reported as 15.9 µM (inactive). For the same compound, the GI50 (786-0) was 29.6 µM (inactive), the GI50 (SK-MEL-28) was 49.5 µM (inactive) and the GI50 (HOP-18) was 76.9 µM (inactive). For the same compound, the GI50 (HCT-116) was 15.6 µM (inactive), the GI50 (RXF 631) was > 100 µM (inactive) and the GI50 (CAKI-1) was 52.4 µM (inactive). For the same compound, the GI50 (UACC-62) was 3.61 µM (inactive), the GI50 (ACHN) was 31.5 µM (inactive) and the GI50 (A498) was 25.7 µM (inactive). For the same compound, the GI50 (DMS-114) was 12.3 µM (inactive), the GI50 (EKVX) was > 100 µM (inactive) and the GI50 (OVCAR-8) was 43.5 µM (inactive). The GI50 (IGROV-1) was 28.4 µM (inactive), the GI50 (KM12) was 15.1 µM (inactive) and the GI50 (TK-10) was 68.2 µM (inactive). The GI50 (SK-OV-3) was > 100 µM (inactive), the GI50 (SNB-75) was > 100 µM (inactive) and the GI50 (NCI-H226) was > 100 µM (inactive). For the same compound, the GI50 (K562) was 7.78 µM (inactive), the GI50 (SW-620) was 12.7 µM (inactive) and the GI50 (DMS-273) was 7.23 µM (inactive). The GI50 (HCT-15) was 16.4 µM, the GI50 (UACC-257) was 57.5 µM (inactive) and the GI50 (SNB-19) was 19.8 µM (inactive). The GI50 (HCC 2998) was 32.1 µM (inactive), the GI50 (OVCAR-5) was 50.9 µM (inactive) and the GI50 (SF-539) was 52.2 µM (inactive). For the same compound, the GI50 (HL-60) was 16.2 µM (inactive), the GI50 (NCI-H460) was 25.1 µM (inactive) and the GI50 (CCRF-CEM) was 12.3 µM (inactive). The GI50 (OVCAR-4) was 38.8 µM (inactive), the GI50 (HT-29) was 36.9 µM (inactive) and the GI50 (OVCAR-3) was 24.5 µM (inactive). The GI50 (A549) was 22.5 µM (inactive), the GI50 (XF498) was 4.71 µM (inactive) and the GI50 (LOX IMVI) was 7.5 µM (inactive). The GI50 (SK-MEL-5) was 13.7 µM (inactive), the GI50 (Malme-3M) was 77.8 µM (inactive) and the GI50 (MOLT-4) was 9.62 µM (inactive). For the same compound, the GI50 (SNB-78) was 40.6 µM (inactive), the GI50 (SK-MEL-2) was 21.8 µM (inactive) and the GI50 (HOP-92) was 36.4 µM (inactive). For the same compound, the GI50 (RPMI-8226) was 28.1 µM (inactive), the GI50 (COLO 205) was 32.2 µM (inactive) and the GI50 (M14) was 13.6 µM (inactive). The GI50 (LXFL 529) was 8.11 µM (inactive), the GI50 (SN12C) was 40.4 µM (inactive) and the GI50 (SF-268) was 61.7 µM (inactive). The GI50 (NCI-H23) was 42.7 µM (inactive), the GI50 (HOP-62) was 19.8 µM (inactive) and the GI50 (KM-20L2) was 16.1 µM (inactive). The GI50 (SF-295) was 79.3 µM (inactive), the GI50 (M19-MEL) was 29.1 µM (inactive) and the GI50 (RXF 393) was 16.8 µM (inactive).

`Clc1cccc2c1OCC1C(c3ccccc3)=NN(c3ccccc3)C21` (configuration not stated) was tested, and the GI50 (UO-31) was 60.8 µM (inactive), the GI50 (DLD-1) was > 100 µM (inactive) and the GI50 (786-0) was 55.6 µM (inactive). For the same compound, the GI50 (SK-MEL-28) was > 100 µM (inactive), the GI50 (HOP-18) was 24 µM (inactive) and the GI50 (HCT-116) was 12.9 µM (inactive). The GI50 (RXF 631) was > 100 µM (inactive), the GI50 (ACHN) was 55.5 µM (inactive) and the GI50 (A498) was > 100 µM (inactive). The GI50 (DMS-114) was 47.6 µM (inactive), the GI50 (EKVX) was 40.1 µM (inactive) and the GI50 (OVCAR-8) was 81.8 µM (inactive). For the same compound, the GI50 (IGROV-1) was > 100 µM (inactive), the GI50 (KM12) was 87.1 µM (inactive) and the GI50 (TK-10) was > 100 µM (inactive). The GI50 (SK-OV-3) was > 100 µM (inactive), the GI50 (SNB-75) was > 100 µM (inactive) and the GI50 (K562) was 28.9 µM (inactive). The GI50 (SW-620) was > 100 µM (inactive), the GI50 (DMS-273) was 45.8 µM (inactive) and the GI50 (UACC-257) was 67.3 µM (inactive). For the same compound, the GI50 (SNB-19) was 96.4 µM (inactive), the GI50 (HCC 2998) was > 100 µM (inactive) and the GI50 (OVCAR-5) was > 100 µM (inactive). The GI50 (HL-60) was 31.8 µM (inactive), the GI50 (NCI-H460) was 59.4 µM (inactive) and the GI50 (CCRF-CEM) was 32.2 µM (inactive). The GI50 (HT-29) was 83.9 µM (inactive), the GI50 (OVCAR-3) was > 100 µM (inactive) and the GI50 (A549) was 66.2 µM (inactive). The GI50 (XF498) was > 100 µM (inactive), the GI50 (LOX IMVI) was 39.7 µM (inactive) and the GI50 (SK-MEL-5) was 23.8 µM (inactive). The GI50 (Malme-3M) was > 100 µM (inactive), the GI50 (MOLT-4) was 35.2 µM (inactive) and the GI50 (SNB-78) was 72.9 µM (inactive). The GI50 (SK-MEL-2) was > 100 µM (inactive), the GI50 (HOP-92) was 64.4 µM (inactive) and the GI50 (RPMI-8226) was 22.8 µM (inactive). The GI50 (NCI-H522) was 45.4 µM (inactive), the GI50 (COLO 205) was > 100 µM (inactive) and the GI50 (LXFL 529) was 67.1 µM (inactive). For the same compound, the GI50 (SF-268) was 63.2 µM (inactive), the GI50 (NCI-H23) was > 100 µM (inactive) and the GI50 (HOP-62) was > 100 µM (inactive). For the same compound, the GI50 (U-251) was 38.9 µM (inactive), the GI50 (KM-20L2) was > 100 µM (inactive) and the GI50 (SF-295) was 72.1 µM (inactive). The GI50 (M19-MEL) was > 100 µM (inactive) and the GI50 (RXF 393) was > 100 µM (inactive).
